The values that follow come from patent publication US9284292B2, “Sialochimeric compounds” (THERAPICON S.R.L., priority 2009, dated 2016).

For this experiment, the system named is influenza virus A/H1N1(H275Y) (A/Parma/38/2008). The format is cell-based, influenza virus type A.

Molecules are shown by their SMILES.

What is called EC50 is the concentration giving half of the maximal effect. The low end stands for an effect from little substance, the high end for a need for much substance. Consider `CCOC(=O)C1=CC(OC(CC)CC)C(NC(C)=O)C(NC2(C(=O)O)CC(O)C(NC(C)=O)C(CNC34CC5CC(CC(C5)C3)C4)O2)C1` (centres unmarked) [THE 08/01, Amantadine-C7-Neu5Ac—C16H28N2O4], for which a half-maximal effect (EC50) was put at 14.5 µM and the “antiviral activity in vitro versus influenza virus A/H1N1(H275Y)” value is listed as “comparable to that determined versus A/H1N1”.
